Activity calls are given as the source filed them. No cut-off for these calls is given here.
Key:
NCI-H460 = experiment: Cytotoxicity against human NCI-H460 after 72 hrs by sulforhodamine B assay; format: functional, cell-based; conditions: NCI-H460, 72 h
[1] = molecular target: T1, Heat shock protein HSP 90-beta (Homo sapiens, UniProt P08238); experiment: Inhibition of Hsp90 in human A431 cells assessed as reduction in Akt protein expression after 24 hrs by Western blot analysis; format: cell-based; conditions: A-431
Mus musculus [2] = experiment: Toxicity in human A431 cells xenografted CD1 Harlan mouse assessed as body weight loss at 60 mg/kg, ip qd administered for 5 days; format: organism-based, A-431; design: dose 60 mg/kg, route intraperitoneal; conditions: in vivo, 120 h
[3] = Toxicity in human A431 cells xenografted ip dosed CD1 Harlan mouse; format: organism-based, A-431; conditions: in vivo
A-431 = experiment: Antitumor activity against human A431 cells xenografted in CD1 Harlan mouse assessed as tumor volume inhibition at 60 mg/kg, ip qd administered for 5 days; format: functional; conditions: A-431, ip, 120 h, route intraperitoneal
[4] = molecular target: T1, Heat shock protein HSP 90-beta; experiment: Inhibition of Hsp90 in human A431 cells assessed as increase in Hsp70 protein expression at 0.075 to 1.2 uM after 24 hrs by Western blot analysis; format: cell-based; conditions: A-431
[5] = molecular target: T1, Heat shock protein HSP 90-beta; experiment: Binding affinity to Hsp90 after 4 hrs by fluorescence polarization assay
[6] = molecular target: T1, Heat shock protein HSP 90-beta; experiment: Inhibition of Hsp90 in human A431 cells assessed as reduction in CDK4 protein expression after 24 hrs by Western blot analysis; format: cell-based; conditions: A-431
[7] = molecular target: T1, Heat shock protein HSP 90-beta; experiment: Inhibition of Hsp90 in human A431 cells assessed as reduction in EGFR protein expression after 24 hrs by Western blot analysis; format: cell-based; conditions: A-431
[8] = molecular target: T1, Heat shock protein HSP 90-beta; experiment: Inhibition of Hsp90 in human A431 cells assessed as increase in Hsp70 protein expression at 0.11 to 0.8 uM after 24 hrs by Western blot analysis; format: cell-based; conditions: A-431
[9] = molecular target: T1, Heat shock protein HSP 90-beta; experiment: Inhibition of Hsp90 in human A431 cells assessed as increase in Hsp70 protein expression at 0.011 to 0.9 uM after 24 hrs by Western blot analysis; format: cell-based; conditions: A-431
[10] = molecular target: T1, Heat shock protein HSP 90-beta; experiment: Inhibition of Hsp90 in human A431 cells assessed as increase in Hsp70 protein expression at 0.01 to 0.814 uM after 24 hrs by Western blot analysis; format: cell-based; conditions: A-431
Mus musculus [11] = experiment: Degradation of CDK4 in human A431 cells xenografted in CD1 Harlan mouse at 60 mg/kg, ip qd administered for 5 days measured 2 hrs post-last dose by Western blot analysis; format: functional, organism-based; design: dose 60 mg/kg; conditions: A-431
Mus musculus [12] = experiment: Degradation of EGFR in human A431 cells xenografted in CD1 Harlan mouse at 60 mg/kg, ip qd administered for 5 days measured 2 hrs post-last dose by Western blot analysis; format: functional, organism-based; design: dose 60 mg/kg; conditions: A-431
Mus musculus [13] = experiment: Increase of Hsp70 expression in human A431 cells xenografted in CD1 Harlan mouse at 60 mg/kg, ip qd administered for 5 days measured 2 hrs post-last dose by Western blot analysis; format: functional, organism-based; design: dose 60 mg/kg; conditions: A-431
Mus musculus [14] = experiment: Degradation of Akt in human A431 cells xenografted in CD1 Harlan mouse at 60 mg/kg, ip qd administered for 5 days measured 2 hrs post-last dose by Western blot analysis; format: functional, organism-based; design: dose 60 mg/kg; conditions: A-431
[15] = molecular target: T1, Heat shock protein HSP 90-beta; experiment: Inhibition of Hsp90 in human A431 cells assessed as increase in Hsp70 protein expression at 0.00493 to 1.2 uM after 24 hrs by Western blot analysis; format: cell-based; conditions: A-431
[16] = molecular target: T1, Heat shock protein HSP 90-beta; experiment: Inhibition of Hsp90 in human A431 cells assessed as increase in Hsp70 protein expression at 0.0031 to 0.8 uM after 24 hrs by Western blot analysis; format: cell-based; conditions: A-431

T1 sequence (P08238 whole entry): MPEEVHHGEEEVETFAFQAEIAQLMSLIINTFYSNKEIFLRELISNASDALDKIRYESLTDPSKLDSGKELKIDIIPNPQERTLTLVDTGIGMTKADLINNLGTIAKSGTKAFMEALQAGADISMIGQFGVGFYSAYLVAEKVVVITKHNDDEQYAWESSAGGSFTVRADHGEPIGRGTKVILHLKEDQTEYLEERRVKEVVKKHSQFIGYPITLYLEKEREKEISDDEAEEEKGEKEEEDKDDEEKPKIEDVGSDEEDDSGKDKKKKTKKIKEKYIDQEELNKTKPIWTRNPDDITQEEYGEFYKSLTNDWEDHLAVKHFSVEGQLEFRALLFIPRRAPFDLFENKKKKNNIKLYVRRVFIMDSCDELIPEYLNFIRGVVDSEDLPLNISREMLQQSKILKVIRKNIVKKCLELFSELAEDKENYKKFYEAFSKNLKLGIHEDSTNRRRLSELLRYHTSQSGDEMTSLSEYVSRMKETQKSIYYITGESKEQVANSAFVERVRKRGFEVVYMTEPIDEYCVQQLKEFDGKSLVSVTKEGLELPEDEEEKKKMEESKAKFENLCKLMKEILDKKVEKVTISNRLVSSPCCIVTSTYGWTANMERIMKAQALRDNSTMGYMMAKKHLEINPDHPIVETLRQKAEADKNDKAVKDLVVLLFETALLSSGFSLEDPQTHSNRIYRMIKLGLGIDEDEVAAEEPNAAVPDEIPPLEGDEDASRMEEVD

SMILES | IC50 (NCI-H460) [nM] | inhibition [1] | Activity (Mus musculus [2]) [%] | MTD [3] [mg/kg] | inhibition in vivo at 60 mg/kg (A-431) [%] | inhibition [4] | IC50 [5] [nM] | inhibition [6] | inhibition [7] | inhibition [8] | inhibition [9] | inhibition [10] | Activity (Mus musculus [11]) | Activity (Mus musculus [12]) | Activity (Mus musculus [13]) | Activity (Mus musculus [14]) | inhibition [15] | inhibition [16]
CCNC(=O)c1noc(-c2cc(C(C)C)c(O)cc2O)c1NC(=O)c1ccc(CN2CCOCC2)cc1 | 95 | Dose-dependent effect | 2 | 60 | 33 | Active | 71 | Dose-dependent effect | Dose-dependent effect |  |  |  |  |  |  |  |  | 
CCNC(=O)c1noc(-c2cc(C(C)C)c(O)cc2O)c1NC(=O)c1sccc1C | 17 | Dose-dependent effect |  |  |  |  | 84 | Dose-dependent effect | Dose-dependent effect | Active |  |  |  |  |  |  |  | 
CCNC(=O)c1noc(-c2cc(C(C)C)c(O)cc2O)c1NC(=O)[C@H]1CC[C@@H](OC)CC1 | 13 | Dose-dependent effect |  |  |  |  | 24 | Dose-dependent effect | Dose-dependent effect |  | Active |  |  |  |  |  |  | 
CCNC(=O)c1noc(-c2cc(C(C)C)c(O)cc2O)c1NC(=O)c1cc(CC)on1 | 22 | Dose-dependent effect |  |  |  |  | 20 | Dose-dependent effect | Dose-dependent effect |  |  | Active |  |  |  |  |  | 
CCNC(=O)c1noc(-c2cc(C(C)C)c(O)cc2O)c1NC(=O)c1cc(CN2CCOCC2)on1 | 200 |  | 7 | 60 | 48 |  | 40 |  |  |  |  |  | Active | Active | Active | Active |  | 
CCNC(=O)c1noc(-c2cc(C(C)C)c(O)cc2O)c1NC(=O)C1CCCCC1 | 16 | Dose-dependent effect |  |  |  |  | 190 | Dose-dependent effect | Dose-dependent effect |  |  |  |  |  |  |  | Active | 
CCNC(=O)c1noc(-c2cc(C(C)C)c(O)cc2O)c1NC(=O)C(C)(C)C | 24 | Dose-dependent effect |  |  |  |  | 41 | Dose-dependent effect | Dose-dependent effect |  |  |  |  |  |  |  |  | Active

— ChEMBL document CHEMBL1938264, “Novel 3,4-isoxazolediamides as potent inhibitors of chaperone heat shock protein 90” (J Med Chem, 2011)
